Laboratory results as given in PubChem BioAssay (NCI).
Several values for one entry are separate records, joined by “and”; a condition that tells them apart may be missing. Equal entries are not always repeated.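 Growth conditions: 96-well plates. Treatment: test compound, 48 hours, 5 concentrations. Analysis: linear interpolation between bracketing concentrations; unreached endpoints set to highest concentration. Here, GI50 denotes the concentration required for 50% inhibition of growth. TGI: concentration producing complete growth inhibition.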

Key:
Experiment in all cases: DTP human tumour cell line panel, 48 h
COLO 205 colon = tested on: COLO 205 colon
HCC-2998 colon = tested on: HCC-2998 colon
HL-60(TB) leukemia = tested on: HL-60(TB) leukemia
HOP-62 NSCLC = tested on: HOP-62 NSCLC
MDA-MB-231 breast = tested on: MDA-MB-231 breast
NCI-H460 lung = tested on: NCI-H460 lung
SK-MEL-28 melanoma = tested on: SK-MEL-28 melanoma
SNB-75 CNS = tested on: SNB-75 CNS
UACC-62 melanoma = tested on: UACC-62 melanoma
UO-31 renal = tested on: UO-31 renal

Row | SMILES | GI50 (COLO 205 colon) [µM] | TGI (COLO 205 colon) | GI50 (HCC-2998 colon) [µM] | TGI (HCC-2998 colon) | GI50 (HL-60(TB) leukemia) [µM] | TGI (HL-60(TB) leukemia) [µM] | GI50 (HOP-62 NSCLC) [µM] | TGI (HOP-62 NSCLC) | GI50 (MDA-MB-231 breast) [µM] | TGI (MDA-MB-231 breast) | GI50 (NCI-H460 lung) | TGI (NCI-H460 lung) | GI50 (SK-MEL-28 melanoma) [µM] | TGI (SK-MEL-28 melanoma) [µM] | GI50 (SNB-75 CNS) [µM] | TGI (SNB-75 CNS) | GI50 (UACC-62 melanoma) [µM] | TGI (UACC-62 melanoma) | GI50 (UO-31 renal) [µM] | TGI (UO-31 renal)
1 | Cc1cc(Cl)cc(Cc2cc(Cl)cc(C)c2O)c1O | 5.72 | 18.8 µM | 2.68 | 7.95 µM | 2.94 | 8.09 | 3.66 | 11.5 µM | 2.46 | 8.22 µM | 3.14 µM | 10.5 µM | 3.46 | 15.2 | 1.95 | 7.19 µM | 2.28 | 10.6 µM | 2.06 | 10.6 µM
2 | C/C(=N/Nc1nc(C)cc(=O)[nH]1)C(=O)O | – | > 100 µM | – | > 100 µM | – | > 100 | – | > 100 µM | – | > 100 µM | – | > 100 µM | – | > 100 | – | > 100 µM | – | > 100 µM | – | > 100 µM
3 | CN1CCN(Cc2cc(NC(=O)c3cccc(C#Cc4cccc5[nH]nc(N)c45)c3)cc(C(F)(F)F)c2)CC1 | 1.53 | 2.98 µM | 1.99 | 3.66 µM | 1.89 | 4.42 | 1.55 | 3 µM | 1.38 | 2.73 µM | 1.67 µM | 3.06 µM | 1.56 | 2.94 | 1.5 | 2.92 µM | 1.69 | 3.22 µM | 1.71 | 3.16 µM
4 | O=C1NC(c2cccc(OCc3ccccc3)c2)Nc2ccccc21 (stereo not drawn) | – | 2.64 µM | – | 0.621 µM | – | < 0.0428 | – | 26.3 µM | – | 4.69 µM | – | 22.9 µM | – | > 85.7 | – | 0.896 µM | – | > 27.1 µM | – | 55 µM
5 | COC1=CC(=O)c2nc(Cl)ccc2C1=O | 2.31 | 4.98 µM | 11.4 | 23.6 µM | 2.01 | 7.61 | 1.94 | 3.4 µM | 1.84 | 6.44 µM | 14 µM | 29.3 µM | 1.88 | 3.47 | 1.35 | 2.73 µM | 1.77 | 3.45 µM | 1.63 | 3.12 µM
6 | CN1CCN(Cc2ccc(NC(=O)c3cncc(C#Cc4cnc(N)c5cnccc45)c3)cc2C(F)(F)F)CC1 | 0.0982 | 6 µM | 0.234 | 7.12 µM | 0.0926 | 0.585 | 0.233 | 4.32 µM | 0.0722 | 0.223 µM | 0.218 µM | 3.31 µM | 0.0937 | 0.394 | 0.233 | 1.71 µM | 0.0782 | 0.282 µM | 0.42 | 1.31 µM
7 | CC1(C)N=C(N)N=C(N)N1c1cccc(Br)c1 | 8.39 | > 100 µM | 0.777 | > 45.5 µM | 0.491 | > 73.8 | 0.777 | > 100 µM | > 100 | > 100 µM | 0.435 µM | > 100 µM | 14 | > 100 | > 59 | > 100 µM | 1.93 | > 100 µM | 6.69 | > 100 µM
8 | CSc1ccc(C(=O)/C=C/c2ccccc2Cl)cc1 | 33.5 | > 100 µM | 13.1 | 28.7 µM | 19.5 | 90.3 | 17.4 | 35.4 µM | 13.3 | 31.2 µM | 25.2 µM | 70 µM | 23.4 | 52.9 | 22.2 | 45.2 µM | 15.7 | 33.5 µM | 2.31 | 5.05 µM
9 | C/C(=N/N=C(N)N)c1ccc(NC(=O)Nc2ccc(/C(C)=N/N=C(N)N)cc2)cc1 | 43.3 | > 100 µM | 23.4 | 81.5 µM | 7.89 | > 28.4 | 21.8 | > 60.3 µM | 20 | 71.2 µM | 13.5 µM | 48.8 µM | 15 | 39.9 | 17.6 | 38.1 µM | 17.4 | 45.3 µM | 40.8 | > 100 µM
10 | O=C1C=CC2(C=C1)C[C@H](NC(=O)OCc1ccccc1)C(=O)O2 | – | 18.3 µM | – | 40.8 µM | – | 7.58 | – | > 69.2 µM | – | 32.6 µM | – | 59.9 µM | – | 27 | – | 61.4 µM | – | 31.9 µM | – | 39.9 µM
11 | Nc1ncnc2c1ccn2[C@@H]1O[C@H]([C@H](O)c2ccc(Cl)c(F)c2)[C@@H](O)[C@H]1O | > 100 | > 100 µM | > 100 | > 100 µM | > 100 | > 100 | > 100 | > 100 µM | > 100 | > 100 µM | > 100 µM | > 100 µM | > 100 | > 100 | > 100 | > 100 µM | > 100 | > 100 µM | 45.3 | > 100 µM
12 | C[CH2][Sn]([CH2]C)([O]C(=O)c1ccc(OC)c(OC)c1OC)[O]C(=O)c1ccc(OC)c(OC)c1OC | 65.1 | > 100 µM | > 100 | > 100 µM | > 63.5 | > 100 | > 100 | > 100 µM | 59.1 | > 100 µM | > 100 µM | > 100 µM | 26.6 | > 69 | 19.1 | 62.8 µM | 42.6 | > 100 µM | > 65.7 | > 96.4 µM
13 | COCc1c(-c2ccc(NC(=O)Nc3cc(C(F)(F)F)ccc3F)c(F)c2)c2c(N)ncnn2c1CN1CCOCC1 | 1.05 | 2.71 µM | 2.84 | 7.33 µM | 3.46 | > 10 | 2.05 | 7.1 µM | 1.91 | > 10 µM | 2.24 µM | 9.74 µM | 3.02 | > 10 | 0.492 | 3.25 µM | 1.34 | > 10 µM | 1.59 | > 10 µM
14 | CCCCCC[C@H](C)NC(=O)c1ccc(Nc2nc3ccccc3c3occc23)cc1 | 3.07 | 8.45 µM | 1.26 | 4.16 µM | 4.47 | 48.9 | 3.39 | 12.9 µM | 12.6 | 51.8 µM | 3.81 µM | > 100 µM | 5.41 | > 100 | 3.99 | 7.69 µM | 16 | 35.5 µM | 0.596 | 3.53 µM
15 | N#CC1C(=O)NC(c2ccccc2[N+](=O)[O-])c2sc3c(F)cccc3c21 (stereo not drawn) | 8.05 | 58.4 µM | 10.1 | 32.7 µM | 14.2 | 54.3 | 2.12 | 28.9 µM | 8.53 | 54.8 µM | 0.28 µM | 4.58 µM | 29.5 | > 100 | 1.62 | 94.9 µM | 0.341 | 4.27 µM | 5.44 | 36.1 µM
16 | CCN(Cc1ccc(F)cc1)c1ccc(CO)c(OC)c1 | 13.4 | 29.7 µM | 21.9 | > 60.5 µM | 16 | 46.4 | 40.8 | > 100 µM | 23.1 | > 88.5 µM | 23.2 µM | > 100 µM | 20.2 | > 100 | 11.6 | > 100 µM | 4.14 | 17.3 µM | 13.7 | 35.6 µM
17 | Cc1ccc(OCC2OC(n3cnc4c(Br)nc(Br)nc43)CC2Oc2ccc(C)cc2)cc1 (stereo not drawn) | 11.4 | 25.3 µM and 13.1 µM | 3.07 | 11.8 µM and 7.24 µM | – | 21.8 | 9.08 | 19.2 µM and 17.1 µM | 1.74 | 5.27 µM and 4.34 µM | 1.86 µM and 10.7 µM | 6.07 µM and 28 µM | – | 10.1 | 8.32 | 18.3 µM and 9.29 µM | 3.1 | 11.4 µM and 20.6 µM | 11.9 | 22.3 µM and 28.4 µM
